Experimental data: patent US9802918B2, “Pyridineamine compounds useful as Pim kinase inhibitors” (Incyte Corporation, priority 2015, dated 2017)

Legend:
Type in all cases: biochemical
Pim-1 = Pim-1 (Homo sapiens (Human), UniProt P11309); assay: Pim-1 kinase assay; conditions: 1 mM ATP; read-out: Pim1 IC50
Procedure: Supplementation of the STOP buffer with beads and stopping the reactions were done under reduced light. Prior to the stopping reactions STOP buffer with beads was preincubated for 1 h in the dark at room temperature. After stopping the reactions, plates were incubated for 1 h in the dark at room temperature before reading on a PHERAstar FS plate reader (BMG Labtech) under reduced light.

Pim-3 = Pim-3 (Homo sapiens (Human), UniProt Q86V86); assay: Pim-3 kinase assay; conditions: 1 mM ATP; read-out: Pim3 IC50
Procedure: Pim-1 and Pim-3 kinase assays-20 μL reactions were run in white 384 well polystyrene plates dotted with 0.8 μL compound/DMSO in the assay buffer (50 mM Tris, pH 7.5, 0.01% Tween-20, 5 mM mgCl2, 0.01% BSA, 5 mM DTT), containing […] Biotin-labeled BAD peptide substrate (AnaSpec 62269), 1 mM ATP, and 2.5 pM (Pim-1, Invitrogen PV3503) or 1.25 pM (Pim-3, Millipore 14-738) enzyme for 1 h at 25° C. Reactions were stopped by addition of 10 μL STOP Buffer (150 mM Tris, pH=7.5, 150 mM NaCl, 75 mM EDTA, 0.01% Tween-20, 0.3% BSA,) supplemented with Phospho-Bad (Ser112) Antibody (Cell Signaling 9291) diluted 666-fold, and Streptavidin donor beads (PerkinElmer 6760002) along with Protein-A acceptor beads (PerkinElmer 6760137) at 15 μg/mL each. Supplementation of the STOP buffer with beads and stopping the reactions were done under reduced light. Prior to the stopping reactions STOP buffer with beads was preincubated for 1 h in the dark at room temperature. After stopping the reactions, plates were incubated for 1 h in the dark at room temperature before reading on a PHERAstar FS plate reader (BMG Labtech) under reduced light.

Pim-2 = Pim-2 (Homo sapiens (Human), UniProt Q9P1W9); assay: Pim-2 kinase assay; conditions: 1 mM ATP; read-out: Pim2 IC50
Procedure: Pim-2 kinase assay—20 μL reactions were run in white 384 well polystyrene plates dotted with 0.8 μL compound/DMSO in the assay buffer (50 mM Tris, pH 7.5, 0.01% Tween-20, 5 mM mgCl2, 0.01% BSA, 5 mM DTT), containing […] Fluorescein-labeled CREBtide peptide substrate (Invitrogen PV3508), 1 mM ATP, and 1 nM enzyme (Invitrogen PV3649) for 2 h at 25° C. Reactions were stopped by addition of 10 μL TR-FRET Dilution Buffer (Invitrogen PV3574) with 30 mM EDTA and 1.5 nM LanthaScreen Tb-CREB pSer133 antibody (Invitrogen PV3566). After 30 min. incubation at room temperature, plates were read on a PHERAstar FS plate reader (BMG Labtech).

Pim-2, sequence (Q9P1W9 whole entry): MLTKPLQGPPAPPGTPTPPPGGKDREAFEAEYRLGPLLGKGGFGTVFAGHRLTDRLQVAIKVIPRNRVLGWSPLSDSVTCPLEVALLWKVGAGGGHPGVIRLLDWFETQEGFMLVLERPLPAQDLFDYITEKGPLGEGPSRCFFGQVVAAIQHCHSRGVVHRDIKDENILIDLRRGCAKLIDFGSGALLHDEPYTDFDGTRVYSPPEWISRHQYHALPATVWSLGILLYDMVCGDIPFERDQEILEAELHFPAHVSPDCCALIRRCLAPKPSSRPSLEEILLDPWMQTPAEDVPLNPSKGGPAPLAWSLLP
Pim-1, sequence (P11309 whole entry): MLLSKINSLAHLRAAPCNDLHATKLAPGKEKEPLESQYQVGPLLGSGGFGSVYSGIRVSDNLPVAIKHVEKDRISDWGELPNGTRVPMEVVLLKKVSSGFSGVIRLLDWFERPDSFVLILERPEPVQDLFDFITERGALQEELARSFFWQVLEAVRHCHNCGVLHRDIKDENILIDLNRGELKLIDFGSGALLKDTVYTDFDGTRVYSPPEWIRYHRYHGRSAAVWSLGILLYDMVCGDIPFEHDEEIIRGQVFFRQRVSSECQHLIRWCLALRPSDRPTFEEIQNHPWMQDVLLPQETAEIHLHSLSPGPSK

Row | SMILES | IC50 (Pim-1) [nM] | IC50 (Pim-3) [nM] | IC50 (Pim-2) [nM]
1 | C[C@H]1CN(c2ccncc2NCc2ccc(F)c(-c3c(F)cc4ncccc4c3F)n2)C[C@@H](N)[C@@H]1O [Example 37, (3R,4R,5S)-3-Amino-1-[3-({[6-(5,7-difluoroquinolin-6-yl)-5-fluoropyridin-2-yl]methyl}amino)pyridin-4-yl]-5-methylpiperidin-4-ol] | < 10 | ≤ 10 | 100 to 1000
2 | C[C@@H]1C[C@H](N)CN(c2ccncc2NCc2ccc(F)c(-c3c(F)cc4ncccc4c3F)n2)C1 [Example 38, 4-[(3S,5R)-3-Amino-5-methylpiperidin-1-yl]-N-{[6-(5,7-difluoroquinolin-6-yl)-5-fluoropyridin-2-yl]methyl}pyridin-3-amine] | < 10 | ≤ 10 | 100 to 1000
3 | C[C@H]1CN(c2ccncc2NCc2ccc(F)c(-c3c(F)cc(CN4CCOCC4)cc3F)n2)C[C@@H](N)[C@@H]1O [Example 39, (3R,4R,5S)-3-Amino-1-{3-[({6-[2,6-difluoro-4-(morpholin-4-ylmethyl)phenyl]-5-fluoropyridin-2-yl}methyl)amino]pyridin-4-yl}-5-methylpiperidin-4-ol] | < 10 | ≤ 10 | ≤ 100
4 | CNCc1cc(F)c(-c2nc(CNc3cnccc3N3C[C@@H](N)[C@H](O)[C@@H](C)C3)ccc2F)c(F)c1 [Example 40, (3R,4R,5S)-3-Amino-1-(3-(((6-(2,6-difluoro-4-((methylamino)methyl)phenyl)-5-fluoropyridin-2-yl)methyl)amino)pyridin-4-yl)-5-methylpiperidin-4-ol] | < 10 | ≤ 10 | 100 to 1000
5 | C[C@H]1CN(c2ccncc2NCc2ccc(F)c(-c3c(F)cc(CN4CCC4)cc3F)n2)C[C@@H](N)[C@@H]1O [Example 41, (3R,4R,5S)-3-Amino-1-(3-(((6-(4-(azetidin-1-ylmethyl)-2,6-difluorophenyl)-5-fluoropyridin-2-yl)methyl)amino)pyridin-4-yl)-5-methylpiperidin-4-ol] | < 10 | ≤ 10 | 100 to 1000
6 | C[C@H]1CN(c2ccncc2NCc2ccc(F)c(-c3c(F)cc(CN4CC[C@@H](O)C4)cc3F)n2)C[C@@H](N)[C@@H]1O [Example 42, (3R,4R,5S)-3-Amino-1-(3-(((6-(2,6-difluoro-4-(((R)-3-hydroxypyrrolidin-1-yl)methyl)phenyl)-5-fluoropyridin-2-yl)methyl)amino)pyridin-4-yl)-5-methylpiperidin-4-ol] | < 10 | ≤ 10 | ≤ 100
7 | C[C@H]1CN(c2ccncc2NCc2ccc(F)c(-c3c(F)cc(CN4CC[C@H](O)C4)cc3F)n2)C[C@@H](N)[C@@H]1O [Example 43, (3R,4R,5S)-3-Amino-1-(3-(((6-(2,6-difluoro-4-(((S)-3-hydroxypyrrolidin-1-yl)methyl)phenyl)-5-fluoropyridin-2-yl)methyl)amino)pyridin-4-yl)-5-methylpiperidin-4-ol] | < 10 | ≤ 10 | ≤ 100
8 | C[C@H]1CN(c2ccncc2NCc2ccc(F)c(-c3c(F)cc(CN4CC[C@@H](C#N)C4)cc3F)n2)C[C@@H](N)[C@@H]1O [Example 44, (R)-1-(4-(6-((4-((3R,4R,5S)-3-Amino-4-hydroxy-5-methylpiperidin-1-yl)pyridin-3-ylamino)methyl)-3-fluoropyridin-2-yl)-3,5-difluorobenzyl)pyrrolidine-3-carbonitrile] | < 10 | ≤ 10 | ≤ 100
9 | C[C@H]1CN(c2ccncc2NCc2ccc(F)c(-c3c(F)cc(CN4CC[C@H](C#N)C4)cc3F)n2)C[C@@H](N)[C@@H]1O [Example 45, (S)-1-(4-(6-((4-((3R,4R,5S)-3-Amino-4-hydroxy-5-methylpiperidin-1-yl)pyridin-3-ylamino)methyl)-3-fluoropyridin-2-yl)-3,5-difluorobenzyl)pyrrolidine-3-carbonitrile] | < 10 | ≤ 10 | ≤ 100
10 | C[C@H]1CN(c2ccncc2NCc2ccc(F)c(-c3c(F)cc(CN4CC[C@@H](F)C4)cc3F)n2)C[C@@H](N)[C@@H]1O [Example 46, (3R,4R,5S)-3-amino-1-(3-(((6-(2,6-difluoro-4-(((R)-3-fluoropyrrolidin-1-yl)methyl)phenyl)-5-fluoropyridin-2-yl)methyl)amino)pyridin-4-yl)-5-methylpiperidin-4-ol] | < 10 | ≤ 10 | ≤ 100
11 | C[C@H]1CN(c2ccncc2NCc2ccc(F)c(-c3c(F)cc(CN4CC[C@H](F)C4)cc3F)n2)C[C@@H](N)[C@@H]1O [Example 47, (3R,4R,5S)-3-amino-1-(3-(((6-(2,6-difluoro-4-(((S)-3-fluoropyrrolidin-1-yl)methyl)phenyl)-5-fluoropyridin-2-yl)methyl)amino)pyridin-4-yl)-5-methylpiperidin-4-ol] | < 10 | ≤ 10 | ≤ 100
12 | C[C@@H]1C[C@H](N)CN(c2ccncc2NCc2ccc(F)c(-c3c(F)cc(CN4CCOCC4)cc3F)n2)C1 [Example 48, 4-[(3S,5R)-3-Amino-5-methylpiperidin-1-yl]-N-({6-[2,6-difluoro-4-(morpholin-4-ylmethyl)phenyl]-5-fluoropyridin-2-yl}methyl)pyridin-3-amine] | < 10 | ≤ 10 | ≤ 100
13 | CNCc1cc(F)c(-c2nc(CNc3cnccc3N3C[C@H](C)C[C@H](N)C3)ccc2F)c(F)c1 [Example 49, 4-((3S,5R)-3-Amino-5-methylpiperidin-1-yl)-N-((6-(2,6-difluoro-4-((methylamino)methyl)phenyl)-5-fluoropyridin-2-yl)methyl)pyridin-3-amine] | < 10 | ≤ 10 | 100 to 1000
14 | C[C@@H]1C[C@H](N)CN(c2ccncc2NCc2ccc(F)c(-c3c(F)cc(CN4CCC4)cc3F)n2)C1 [Example 50, 4-((3S,5R)-3-Amino-5-methylpiperidin-1-yl)-N-((6-(4-(azetidin-1-ylmethyl)-2,6-difluorophenyl)-5-fluoropyridin-2-yl)methyl)pyridin-3-amine] | < 10 | ≤ 10 | 100 to 1000
15 | C[C@@H]1C[C@H](N)CN(c2ccncc2NCc2ccc(F)c(-c3c(F)cc(CN4CC[C@@H](O)C4)cc3F)n2)C1 [Example 51, (R)-1-(4-(6-((4-((3S,5R)-3-Amino-5-methylpiperidin-1-yl)pyridin-3-ylamino)methyl)-3-fluoropyridin-2-yl)-3,5-difluorobenzyl)pyrrolidin-3-ol] | < 10 | ≤ 10 | ≤ 100
16 | C[C@@H]1C[C@H](N)CN(c2ccncc2NCc2ccc(F)c(-c3c(F)cc(CN4CC[C@H](O)C4)cc3F)n2)C1 [Example 52, (S)-1-(4-(6-((4-((3S,5R)-3-Amino-5-methylpiperidin-1-yl)pyridin-3-ylamino)methyl)-3-fluoropyridin-2-yl)-3,5-difluorobenzyl)pyrrolidin-3-ol] | < 10 | ≤ 10 | ≤ 100
17 | C[C@@H]1C[C@H](N)CN(c2ccncc2NCc2ccc(F)c(-c3c(F)cc(CN4CC[C@@H](C#N)C4)cc3F)n2)C1 [Example 53, (R)-1-(4-(6-((4-((3S,5R)-3-amino-5-methylpiperidin-1-yl)pyridin-3-ylamino)methyl)-3-fluoropyridin-2-yl)-3,5-difluorobenzyl)pyrrolidine-3-carbonitrile] | < 10 | ≤ 10 | ≤ 100
